The source of these data is PMC5082894 (PLoS ONE, 2016).

The structures appear in SMILES notation.

As a reminder, the EC50 is the concentration at which the effect is half-maximal. A lower EC50 goes with an effect from little substance. A word on the CC50: it is the concentration at which the toxic effect on the cells reaches its halfway point.

In one data set the test system is HIV-1 NL4-3. The data set is described as follows: MAGI assay, HIV-1 NL4-3. The data set is classed as cell-based. To be noted: Human immunodeficiency virus 1, NL43, MAGI cells. On the procedure:
(§1) Briefly, target cells (HeLa CD4/CCR5-LTR/β-gal; 10^4/well) were plated in 96-well flat microtiter culture plates. […] The test drugs were added initially and viruses were immediately inoculated onto the cells. Forty-eight hours after viral exposure, all blue cells in each well were counted. The cytotoxicity of the compound was determined by the MTT method as previously described. All experiments were performed in triplicate and AZT was used as reference anti-HIV-1 molecule.

The nature of data set [1]: Cytotoxicity by MTT method (MAGI cells). In kind it is cell-based. To be noted: human, HeLa CD4/CCR5-LTR/β-gal cells (MAGI cells); MTT, mean of triplicate ± SD. On the procedure: as §1
Data set [2] has as its system HeLa CD4/CCR5-LTR/β-gal cells. Put plainly: Cytotoxicity by MTT method (MAGI cells). In kind it is cell-based. The note with it: concentrations up to 100 μg/ml (115.7 μM). On the procedure:
as §1

Another data set concerns HIV-1 92HT599 (B-X4). The data set is described as follows: PBMC antiviral assay (RT activity), HIV-1 92HT599. The data set is classed as cell-based. The note with it: Human immunodeficiency virus 1, PBMC, 168 h; PHA-P-activated PBMCs, 125 TCID50, day 7, RT activity. Here is the method: In order to confirm antiretroviral activity of the compounds, using a cell model closer to the pathophysiology, Peripheral Blood Mononuclear Cells (PBMCs) were separated from a buffy-coat from healthy HIV-, HCV-, HBV-seronegative blood donors by Ficoll-Hypaque density gradient centrifugation. The PBMCs were activated by incubation with 1 μg/ml phytohemagglutinin-P (PHA-P; Difco Laboratories) for three days in RPMI 1640 medium supplemented with 10% heat-inactivated fetal calf serum (FCS, +56 ◦C for 45 min), 2mM l-glutamine and a 1% antibiotic cocktail (penicillin, streptomycin, neomycin). After this mitogen activation, PBMCs were cultivated in the same culture medium supplemented with recombinant human interleukin-2 (rHuIL-2; 20 IU/mL) and treated and/or infected. […] All these viruses were amplified in vitro with PHA-P-activated blood mononuclear cells and 50% tissue culture infectious doses (TCID50) were calculated using Kärber’s formula [37], after limited-dilution titration. […] Viral replication was measured by quantifying reverse transcriptase (RT) activity in the cell culture supernatants using the Lenti RT Activity Kit (Cavidi) and AZT was used as reference anti-HIV-1 molecule. EC50 were then calculated and expressed in μM.

For data set [3], the system named is PD-1 expression on CD4+ and CD8+ T cells. The data set is described as follows: Flow cytometry of PD-1 on T cells of HIV-1-infected PBMCs. In kind it is cell-based, human. To be noted: day 9 post infection. The text has this:
PBMCs (1 x 10^6/ml) were infected with 100 TCID50 of various HIV-1 strains (92UG037: primary R5-tropic strain; YU2B and BaL: R5-tropic lab strains, 93BR020: dual-tropic primary isolate; NL4-3: X4-tropic lab strain) and simultaneously treated with a range of concentrations of IND02-trimer in 24-well plates (Greiner) in duplicates. Cells were washed, fixed (4% paraformaldehyde) and stained on several days post infection (1-4-9-13-19) using the following mAbs against PD-1-Brilliant Violet 421, CD3-FITC, Tim-3-PE, CD4-PE-Cy7 (all from Biolegend) and CD8-APC (Miltenyi). Multicolor flow cytometric analyses were performed on a FACS Verse (BD Biosciences).
Fig 5 Reduction of Tim-3 (left) and PD1 (right) expression on HIV-1 and IND02-trimer-treated CD8^+ (A) and CD4^+ (B) T cells. Stimulated PBMCs were simultaneously incubated with 0.4 to 40 μg/ml (0.46–46.3 μM) IND02-trimer and HIV-1 (92UG037, BaL, YU2b, 93BR020 or NL4-3). Up-regulation of Tim-3 (left) and PD-1 (right) on CD8^+ (A) and CD4^+ (B) T cells was impeded by the IND02-trimer, as shown by multicolour FACS analyses of live T cells on day 9 post co-treatment. Experiments were repeated in 4–5 independent experiments with cells from different donors and statistical differences were analyzed by the GraphPad prism software using the unpaired student’s t-test (2-tailed).
Background: Flow cytometry measures light scatter and fluorescence of single cells or particles in a stream.

The test system is the same in data set [4]. The data set is described as follows: Flow cytometry of PD-1 on T cells without HIV-1 (IND02-trimer alone). In kind it is cell-based, human. The note with it: no HIV-1, day 9 post exposure.
The next data set can be described thus: Water solubility. In kind it is physicochemical.

On to `Oc1cc(O)c2c(c1)O[C@@]1(c3ccc(O)c(O)c3)Oc3cc(O)c4c(c3[C@@H]2[C@H]1O)O[C@H](c1ccc(O)c(O)c1)[C@H](O)[C@H]4c1c(O)cc(O)c2c1O[C@H](c1ccc(O)c(O)c1)[C@H](O)C2` [IND02-trimer, cinnamtannin B1], for which the EC50 was found to be 2.8 µg/mL in the data set on HIV-1 NL4-3; 3.2 ± 1.4 µM with HIV-1 NL4-3 (48 h, mean of triplicate ± SD); 1.2 ± 1 µM in the data set with HIV-1 92HT599 (B-X4). The molecule also returned a CC50 in data set [1] of 96 ± 4 µM. In addition, the cytotoxicity entry in data set [2] is on record as “did not show cytotoxicity”. In data set [3] (HIV-1-exposed PBMCs, all concentrations tested (0.4 to 40 μg/ml)), the “PD-1 expression on CD8+ T cells versus infected control cells” value is listed as “significantly reduced”. Besides, the “PD-1 expression on CD4+ T cells versus infected control cells” value in data set [3] (HIV-1-infected PBMCs) was “decreased”. Also, the “% CD4+/PD-1+” value came out at 33.8% in data set [4] (0.4 μg/ml / 0.46 μM); 35.0% in data set [4] (2 μg/ml / 2.31 μM); 32.1% in data set [4] (4 μg/ml / 4.6 μM); 32.0% in data set [4] (20 μg/ml / 23.1 μM); 32.7% in data set [4] (40 μg/ml / 46 μM). Moreover, the “% CD8+/PD-1” value was 23.7% in data set [4] (0.4 μg/ml / 0.46 μM); 23.5% in data set [4] (2 μg/ml / 2.31 μM); 23.7% in data set [4] (4 μg/ml / 4.6 μM); 23.9% in data set [4] (20 μg/ml / 23.1 μM); 23.5% in data set [4] (40 μg/ml / 46 μM). The water solubility entry in “Water solubility” is on record as “water-soluble”.
